The record followed here is patent publication US11242344B2, “(4-hydroxypyrrolidin-2-yl)-heterocyclic compounds and methods of use thereof” (Genentech, Inc., priority 2017, dated 2022).

One assay deals with VHL Elongin B/C complex (Homo sapiens (Human), UniProt P40337). The assay can be described thus: Fluorescence Polarization (FP) VHL Binding Assay. The following applies: VHL binding, FP assay; geometric mean where more than one measurement. The essentials:
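Readout is polarization of a TAMRA-coupled VHL ligand (1.67 nM final) displaced from the VHL(E55-D213)/Elongin B/C complex (2.64 nM final) after 1 h incubation at room temperature in pH 8.0 Tris buffer with 1% DMSO. Data normalized to no-VHL and compound-free controls, with compound fluorescence subtracted, and fitted by four-parameter curve for IC50.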
For orientation: In fluorescence polarisation assays a small probe gives low polarisation when free and higher when bound to something large.

The subject of the next assay is MYC expression. The assay can be described thus: Inhibition of MYC expression in MV-4-11 cells. In kind it is cell-based. Conditions: for IC50: QuantiGene 2.0, geometric mean; for Maximum Inhibition (%): maximum inhibition of MYC expression. Here is the method: Pharmacologic inhibition of MYC is achievable through targeting BET bromodomains through small molecule binder or degrader mechanisms. Such inhibitors may have clinical utility given the widespread pathogenetic role of MYC in cancer. See, e.g., Mertz J, et al., “Targeting MYC dependence in cancer by inhibiting BET bromodomains,” (2011) Proc. Natl. Acad. Sci. USA, Vol. 108 (40), pp. 16669-16674.
To determine the inhibition of MYC expression, MV-4-11 cells (ATCC) were plated at 10,000 cells per well in 96-well plates in RPMI1640 media supplemented with 10% fetal bovine serum and 2 mM L-glutamine. Test compounds diluted in DMSO were transferred to the cell plates, keeping final DMSO concentration consistent at 0.1%, and incubated for 4 h at 37° C. Lysis and analysis for MYC expression were carried out using QuantiGene 2.0 reagents (Affymetrix/eBioscience, probe set cat #SA-50182) and following the vendor's instructions. Luminescence was read using an EnVision plate reader (PerkinElmer) and IC50s generated in Genedata Screener using a 4-parameter non-linear regression fit.
Effective degraders will surpass this and inhibit >95% of MYC, thus following the maximum inhibition within this assay provides valuable SAR. Where more than one measurement was performed for the same assay, the value reported is the geometric mean of all values.

Assay [1] addresses NanoLuc VHL fusion protein (Homo sapiens (Human), UniProt P40337). As to the kind of experiment: VHL HEK-293 BRET Assay (NanoBRET Target Engagement). In kind it is cell-based. Conditions: geometric mean where more than one measurement. The essentials:
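HEK293 cells stably expressing NanoLuc-VHL, 2 h with compound titration and 1 uM final tracer, then Nano-Glo substrate plus extracellular NanoLuc inhibitor. BRET ratio 610/460 nm, background-corrected with no-tracer wells, normalised to DMSO and 10 uM unlabeled VHL antagonist controls; IC50 by four-parameter fit.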

The target in assay [2] is VHL co-expressed with Elongins B and C (Homo sapiens (Human), UniProt P40337). As to the kind of experiment: Surface Plasmon Resonance Assay. In kind it is binding. Conditions: SPR measured VHL affinity; geometric mean where more than one measurement. The essentials: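 Binding kinetics by SPR at 20 °C: compound concentration series run from low to high at 80 μL/min over VHL–Elongin B/C complex, immobilized via avidin tag on SA chip. Buffer was HEPES pH 7.2 with 150 mM NaCl, TCEP, Tween 20, PEG3350 and 2% DMSO; association/dissociation times adjusted per compound.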
VHL co-expressed with Elongins B and C, sequence (P40337 whole entry, looked up): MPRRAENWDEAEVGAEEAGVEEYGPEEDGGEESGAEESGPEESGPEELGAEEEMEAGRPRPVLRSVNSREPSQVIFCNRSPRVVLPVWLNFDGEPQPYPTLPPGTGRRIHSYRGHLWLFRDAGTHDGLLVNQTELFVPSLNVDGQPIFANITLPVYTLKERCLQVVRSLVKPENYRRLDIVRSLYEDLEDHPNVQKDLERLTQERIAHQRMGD
VHL co-expressed with Elongins B and C, sequence (Q15370 whole entry partner, looked up): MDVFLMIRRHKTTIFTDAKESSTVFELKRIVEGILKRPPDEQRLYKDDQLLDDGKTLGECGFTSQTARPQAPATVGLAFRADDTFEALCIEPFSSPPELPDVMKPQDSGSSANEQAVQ
VHL co-expressed with Elongins B and C, sequence (Q15369 whole entry partner, looked up): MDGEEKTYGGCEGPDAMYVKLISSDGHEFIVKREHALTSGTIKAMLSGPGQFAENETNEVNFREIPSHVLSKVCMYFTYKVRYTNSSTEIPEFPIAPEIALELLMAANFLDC

VHL Elongin B/C complex, sequence (P40337 whole entry, looked up): as the sequence (P40337 whole entry, looked up) above
VHL Elongin B/C complex, sequence (Q15370 whole entry partner, looked up): as the sequence (Q15370 whole entry partner, looked up) above
VHL Elongin B/C complex, sequence (Q15369 whole entry partner, looked up): as the sequence (Q15369 whole entry partner, looked up) above
NanoLuc VHL fusion protein, sequence (P40337 whole entry, looked up, the tested form may be a part): as the sequence (P40337 whole entry, looked up) above
NanoLuc VHL fusion protein, sequence (Q15370 whole entry partner, looked up, the tested form may be a part): as the sequence (Q15370 whole entry partner, looked up) above
NanoLuc VHL fusion protein, sequence (Q15369 whole entry partner, looked up, the tested form may be a part): as the sequence (Q15369 whole entry partner, looked up) above

Usually IC50 stands for the concentration at which inhibition is half-maximal. Low values mean inhibition by little substance, high ones a need for much substance. On VHL Elongin B/C complex, `Cc1ncsc1-c1ccc([C@]2(C)NC(C3C[C@@H](O)CN3C(=O)C(c3cc(OCCCCCNC(=O)c4cc5c(cc4CS(C)(=O)=O)-c4cn(C)c(=O)c6[nH]cc(c46)CN5c4ncc(F)cc4F)no3)C(C)C)=NC2=O)cc1` (single isomer, unassigned) [Example 1001.4] displayed a concentration for half-maximal inhibition (IC50) above 100 µM. Besides, in the assay with MYC expression (4 h), the IC50 is 0.0261 µM and the “Maximum Inhibition (%)” value is 75.7%.

As to `Cc1ncsc1-c1ccc(C2(C)NC(C3C[C@@H](O)CN3C(=O)C(c3cc(OCCN4CC[C@H](NC(=O)c5cc6c(cc5CS(C)(=O)=O)-c5cn(C)c(=O)c7[nH]cc(c57)CN6c5ncc(F)cc5F)C4)no3)C(C)C)=NC2=O)cc1` (single isomer, unassigned) [Example 1002.3], the “Maximum Inhibition (%)” value with MYC expression (4 h) is reported as 69.8%. The compound also registered a half-inhibitory concentration (IC50) in the assay with MYC expression (Homo sapiens, MV4-11, 4 h) of 0.123 µM.

For `Cc1ncsc1-c1ccc(C2(C)NC(C3C[C@@H](O)CN3C(=O)C(c3cc(OCCN4CC[C@H](NC(=O)c5cc6c(cc5CS(C)(=O)=O)-c5cn(C)c(=O)c7[nH]cc(c57)CN6c5ncc(F)cc5F)C4)no3)C(C)C)=NC2=O)cc1` (single isomer, unassigned) [Example 1002.4], in the assay on MYC expression (4 h), the IC50 is 0.0804 µM and the “Maximum Inhibition (%)” value is recorded as 69.9%.

One may read the Kd as the equilibrium constant for the complex coming apart. Read a low Kd as a tighter complex. `Cc1cc([C@@H](C(=O)N2C[C@H](O)C[C@H]2C2=NOC3(CCCC3)N2)C(C)C)on1` [Example 127.1, (S)-1-((2S,4R)-4-hydroxy-2-(1-oxa-2,4-diazaspiro[4.4]non-2-en-3-yl)pyrrolidin-1-yl)-3-methyl-2-(3-methylisoxazol-5-yl)butan-1-one]: the figures for the IC50 (in assay [1]; at VHL Elongin B/C complex) were 100 µM and at least 400 µM, respectively. Besides, the dissociation constant Kd in assay [2] was at least 150 µM.

With `Cc1cc([C@H](C(=O)N2C[C@H](O)C[C@H]2C2=NOC3(CCCC3)N2)C(C)C)on1` [Example 127.2, (R)-1-((2S,4R)-4-hydroxy-2-(1-oxa-2,4-diazaspiro[4.4]non-2-en-3-yl)pyrrolidin-1-yl)-3-methyl-2-(3-methylisoxazol-5-yl)butan-1-one], the IC50 in assay [1] was found to be 73.2 µM; on VHL Elongin B/C complex it was 50.8 µM. The same compound showed a Kd in assay [2] of 16.4 µM.

Turning to `Cc1cc([C@@H](C(=O)N2C[C@H](O)C[C@H]2C2=NOC(c3ccccc3)(c3ccccc3)N2)C(C)C)on1` [Example 132.1, (S)-1-((2S,4R)-2-(5,5-diphenyl-4,5-dihydro-1,2,4-oxadiazol-3-yl)-4-hydroxypyrrolidin-1-yl)-3-methyl-2-(3-methylisoxazol-5-yl)butan-1-one], the IC50 in assay [1] is 100 µM; on VHL Elongin B/C complex, at least 400 µM. In assay [2], this compound registered a Kd of at least 150 µM.

In the case of `Cc1cc([C@H](C(=O)N2C[C@H](O)C[C@H]2C2=NOC(c3ccccc3)(c3ccccc3)N2)C(C)C)on1` [Example 132.2, (R)-1-((2S,4R)-2-(5,5-diphenyl-4,5-dihydro-1,2,4-oxadiazol-3-yl)-4-hydroxypyrrolidin-1-yl)-3-methyl-2-(3-methylisoxazol-5-yl)butan-1-one], the results for the 50% inhibitory concentration (IC50) (in assay [1]; at VHL Elongin B/C complex) were 39.4 µM and 45.7 µM, respectively. The equilibrium dissociation constant (Kd) in assay [2] was determined as 12.6 µM.

For the compound `Cc1cc(C(C(=O)N2C[C@H](O)CC2C2=NC(C)(C)C(C)(C)N2)C(C)C)on1` (stereo partly drawn) [Example 136.1, 1-((4R)-4-Hydroxy-2-(4,4,5,5-tetramethyl-4,5-dihydro-1H-imidazol-2-yl)pyrrolidin-1-yl)-3-methyl-2-(3-methylisoxazol-5-yl) butan-1-one], the IC50 came to 77.1 µM in assay [1] and 93.6 µM at VHL Elongin B/C complex. This compound also showed a Kd in assay [2] of at least 150 µM.
